# In PubChem BioAssay (NCI):
#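 These data come from cells grown in 96-well plates and exposed to compound for 48 hours at five concentrations. TGI: concentration producing complete growth inhibition.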
# Legend:
# Experiment in all cases: NCI tumour cell line growth inhibition, 48 h
# [1] = tested on: BT-549 breast
# [2] = tested on: CAKI-1 renal
# [3] = tested on: CCRF-CEM leukemia
# [4] = tested on: DU-145 prostate
# [5] = tested on: EKVX NSCLC
# [6] = tested on: HL-60(TB) leukemia
# [7] = tested on: IGROV1 ovarian
# [8] = tested on: LOX IMVI melanoma
# [9] = tested on: M14 melanoma
# [10] = tested on: MDA-MB-435
# [11] = tested on: RXF 393 renal
# [12] = tested on: SK-MEL-2 melanoma
# [13] = tested on: SNB-19 CNS
# [14] = tested on: T-47D breast
# [15] = tested on: TK-10 renal
# [16] = tested on: UACC-257 melanoma
# [17] = tested on: UACC-62 melanoma
# [18] = tested on: HCC-2998 colon
# [19] = tested on: NCI-H460 lung
# [20] = tested on: SR leukemia
Compound,TGI [1],TGI [2],TGI [3],TGI [4],TGI [5],TGI [6],TGI [7],TGI [8],TGI [9],TGI [10],TGI [11],TGI [12],TGI [13],TGI [14],TGI [15],TGI [16],TGI [17],TGI [18],TGI [19],TGI [20]
c1cc(-c2ncc(-c3ccc4c(c3)CCCO4)o2)ccn1,53.3 µM,> 100 µM,29.3 µM,> 100 µM,> 100 µM,16 µM,> 100 µM,31 µM,94.5 µM,15.3 µM,> 100 µM,37.6 µM,> 100 µM,63.7 µM,89.8 µM,43.5 µM,66.3 µM,–,–,–
Cc1cn(C2CC(ON3C(=O)c4ccccc4C3=O)C(CO)O2)c(=O)[nH]c1=O (stereo not drawn),> 10 µM,–,> 10 µM,> 10 µM,> 10 µM,> 10 µM,> 10 µM,> 10 µM,> 10 µM,> 10 µM,> 10 µM,> 10 µM,> 10 µM,–,> 10 µM,> 10 µM,> 10 µM,> 10 µM,> 10 µM,> 10 µM
N#Cc1c(-c2ccccc2)[nH]c2ccccc2c1=O,69.8 µM,> 100 µM,> 100 µM,> 100 µM,> 100 µM,> 100 µM,> 100 µM,> 100 µM,> 100 µM,59.2 µM,> 100 µM,> 100 µM,74.9 µM,–,97.8 µM,> 100 µM,> 100 µM,–,> 100 µM,> 100 µM
CNC(=S)N/N=C(C)\C(=N/NC(=S)NC)c1ccccc1,> 100 µM,> 100 µM,–,> 100 µM,> 100 µM,–,> 100 µM,> 100 µM,> 100 µM,–,> 100 µM,–,> 100 µM,–,> 100 µM,> 100 µM,> 100 µM,> 100 µM,> 100 µM,–
CCOC(=O)C1(C(=O)OCC)CN(CC)CN(c2ccccc2)C1,86.6 µM,31.8 µM,59.1 µM,91.7 µM,34 µM,50.1 µM,39.8 µM,> 100 µM,39.1 µM,37.3 µM,31.7 µM,–,> 100 µM,–,33.1 µM,31.1 µM,68.5 µM,28.9 µM,> 100 µM,47.7 µM
Cn1ccc(C(=O)NCCOCCNC(=O)c2ccn(C)c(=O)c2O)c(O)c1=O,> 100 µM,> 100 µM,–,> 100 µM,–,–,–,> 100 µM,–,> 100 µM,–,> 100 µM,> 100 µM,> 100 µM,> 100 µM,> 100 µM,> 100 µM,> 100 µM,> 100 µM,–
N#CSc1nc[nH]c1C(N)=O,> 100 µM,> 81.6 µM,14.4 µM,> 100 µM,> 100 µM,6.86 µM,> 100 µM,> 100 µM,> 100 µM,> 100 µM,> 100 µM,> 100 µM,> 100 µM,> 100 µM,> 100 µM,> 100 µM,> 100 µM,> 100 µM,> 100 µM,–
CC1=C(Br)C(Br)=C(C)S1=O,40.4 µM,49.9 µM,6.66 µM,–,36.9 µM,18.1 µM,> 100 µM,27.8 µM,33.8 µM,30.9 µM,–,32.9 µM,63.7 µM,> 100 µM,48.5 µM,32.1 µM,85.8 µM,34.9 µM,34.7 µM,19.3 µM
NC(CCC(=O)NC(CSC(=O)N(O)c1ccc(Br)cc1)C(=O)NCC(=O)O)C(=O)O (stereo not drawn),> 50 µM,> 100 µM,> 100 µM,> 50 µM,> 100 µM,> 100 µM,> 100 µM,> 100 µM,> 100 µM,> 50 µM,> 100 µM,> 100 µM,> 100 µM,–,> 100 µM,> 100 µM,> 100 µM,> 100 µM,> 100 µM,> 100 µM
Cc1ccc2nc(-c3ccc(N)c(I)c3)sc2c1,> 100 µM,> 100 µM,88.8 µM,–,> 100 µM,51 µM,–,–,> 100 µM,79.1 µM,> 100 µM,40.8 µM,86.4 µM,–,17.7 µM,> 100 µM,> 100 µM,26.4 µM,> 100 µM,19.8 µM
CC1=NC(=Cc2ccc(O)cc2)C(=O)N1n1c(-c2ccccc2)nc2ccccc2c1=O,> 100 µM,> 100 µM,> 100 µM,> 100 µM,> 100 µM,> 100 µM,> 100 µM,> 100 µM,> 100 µM,> 100 µM,–,–,> 100 µM,> 100 µM,> 100 µM,> 100 µM,> 100 µM,> 100 µM,> 100 µM,> 100 µM
